Measured values from paper PMC8766756, “Insights on Cancer Cell Inhibition, Subcellular Activities, and Kinase Profile of Phenylacetamides Pending 1H-Imidazol-5-One Variants” (Frontiers in Pharmacology, 2022).
Several values for one entry are separate records, joined by “and”; a condition that tells them apart may be missing. Equal entries are not always repeated.

How the values were obtained:
Assay in all cases: PamChip tyrosine kinase microarray
Format in all cases: biochemical
Details in all cases: 0.1 µM, HL60 lysate
JAK3 (P52333) = target: T1, JAK3 (P52333) (Homo sapiens, UniProt P52333)
T1 construct: purchased PamGene (PamChip PTK array, Upstream Kinase Analysis)
T1 sequence (P52333 1-1124): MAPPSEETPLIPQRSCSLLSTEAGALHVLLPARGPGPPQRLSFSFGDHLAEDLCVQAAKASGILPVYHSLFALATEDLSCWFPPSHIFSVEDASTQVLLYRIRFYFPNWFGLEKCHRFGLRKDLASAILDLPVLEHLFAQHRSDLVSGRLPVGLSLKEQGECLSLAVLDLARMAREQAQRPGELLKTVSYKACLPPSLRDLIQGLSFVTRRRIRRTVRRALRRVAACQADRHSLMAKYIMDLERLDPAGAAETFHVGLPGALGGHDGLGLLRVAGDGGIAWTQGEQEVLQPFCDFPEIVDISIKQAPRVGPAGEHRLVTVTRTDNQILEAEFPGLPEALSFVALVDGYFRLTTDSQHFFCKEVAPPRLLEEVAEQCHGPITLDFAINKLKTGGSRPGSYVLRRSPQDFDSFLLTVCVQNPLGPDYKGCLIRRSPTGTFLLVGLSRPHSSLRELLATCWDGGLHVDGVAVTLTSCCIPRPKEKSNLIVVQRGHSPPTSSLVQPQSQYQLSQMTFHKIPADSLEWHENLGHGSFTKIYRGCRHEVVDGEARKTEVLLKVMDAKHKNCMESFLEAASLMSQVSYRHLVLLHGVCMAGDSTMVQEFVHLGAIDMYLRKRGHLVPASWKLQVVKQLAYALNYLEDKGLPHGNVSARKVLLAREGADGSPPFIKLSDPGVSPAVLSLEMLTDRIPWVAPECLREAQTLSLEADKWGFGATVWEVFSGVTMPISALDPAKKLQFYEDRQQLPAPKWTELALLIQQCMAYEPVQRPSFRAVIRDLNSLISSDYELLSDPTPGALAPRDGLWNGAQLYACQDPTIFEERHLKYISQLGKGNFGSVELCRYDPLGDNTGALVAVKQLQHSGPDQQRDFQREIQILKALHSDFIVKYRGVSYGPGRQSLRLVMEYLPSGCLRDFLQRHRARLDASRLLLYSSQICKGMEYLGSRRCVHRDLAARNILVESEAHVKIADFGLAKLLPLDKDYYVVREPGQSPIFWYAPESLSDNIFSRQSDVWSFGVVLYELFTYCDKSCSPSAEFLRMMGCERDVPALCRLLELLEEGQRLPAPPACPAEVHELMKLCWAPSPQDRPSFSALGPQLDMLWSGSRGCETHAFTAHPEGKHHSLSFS
Outline: (§1)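 HL60 (AML) cell lysate was spiked with compound at 0.001, 0.01, 0.1, 1, 10 and 50 µM, or 2% v/v DMSO as control, then profiled in technical replicates on a tyrosine kinase peptide array of 196 phosphosites. Kinase activity was inferred from peptide-set changes using an upstream kinase tool.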

HER3 (P21860) = target: T2, HER3 (P21860) (Homo sapiens, UniProt P21860)
T2 construct: purchased PamGene (PamChip PTK array, Upstream Kinase Analysis)
Outline: as §1

FGFR3 (P22607) = target: T3, FGFR3 (P22607) (Homo sapiens, UniProt P22607)
T3 construct: purchased PamGene (PamChip PTK array, Upstream Kinase Analysis)
Outline: as §1

FLT4 (P35916) = target: T4, FLT4 (P35916) (Homo sapiens, UniProt P35916)
T4 construct: purchased PamGene (PamChip PTK array, Upstream Kinase Analysis)
Outline: as §1

T2 sequence (P21860 20-1342): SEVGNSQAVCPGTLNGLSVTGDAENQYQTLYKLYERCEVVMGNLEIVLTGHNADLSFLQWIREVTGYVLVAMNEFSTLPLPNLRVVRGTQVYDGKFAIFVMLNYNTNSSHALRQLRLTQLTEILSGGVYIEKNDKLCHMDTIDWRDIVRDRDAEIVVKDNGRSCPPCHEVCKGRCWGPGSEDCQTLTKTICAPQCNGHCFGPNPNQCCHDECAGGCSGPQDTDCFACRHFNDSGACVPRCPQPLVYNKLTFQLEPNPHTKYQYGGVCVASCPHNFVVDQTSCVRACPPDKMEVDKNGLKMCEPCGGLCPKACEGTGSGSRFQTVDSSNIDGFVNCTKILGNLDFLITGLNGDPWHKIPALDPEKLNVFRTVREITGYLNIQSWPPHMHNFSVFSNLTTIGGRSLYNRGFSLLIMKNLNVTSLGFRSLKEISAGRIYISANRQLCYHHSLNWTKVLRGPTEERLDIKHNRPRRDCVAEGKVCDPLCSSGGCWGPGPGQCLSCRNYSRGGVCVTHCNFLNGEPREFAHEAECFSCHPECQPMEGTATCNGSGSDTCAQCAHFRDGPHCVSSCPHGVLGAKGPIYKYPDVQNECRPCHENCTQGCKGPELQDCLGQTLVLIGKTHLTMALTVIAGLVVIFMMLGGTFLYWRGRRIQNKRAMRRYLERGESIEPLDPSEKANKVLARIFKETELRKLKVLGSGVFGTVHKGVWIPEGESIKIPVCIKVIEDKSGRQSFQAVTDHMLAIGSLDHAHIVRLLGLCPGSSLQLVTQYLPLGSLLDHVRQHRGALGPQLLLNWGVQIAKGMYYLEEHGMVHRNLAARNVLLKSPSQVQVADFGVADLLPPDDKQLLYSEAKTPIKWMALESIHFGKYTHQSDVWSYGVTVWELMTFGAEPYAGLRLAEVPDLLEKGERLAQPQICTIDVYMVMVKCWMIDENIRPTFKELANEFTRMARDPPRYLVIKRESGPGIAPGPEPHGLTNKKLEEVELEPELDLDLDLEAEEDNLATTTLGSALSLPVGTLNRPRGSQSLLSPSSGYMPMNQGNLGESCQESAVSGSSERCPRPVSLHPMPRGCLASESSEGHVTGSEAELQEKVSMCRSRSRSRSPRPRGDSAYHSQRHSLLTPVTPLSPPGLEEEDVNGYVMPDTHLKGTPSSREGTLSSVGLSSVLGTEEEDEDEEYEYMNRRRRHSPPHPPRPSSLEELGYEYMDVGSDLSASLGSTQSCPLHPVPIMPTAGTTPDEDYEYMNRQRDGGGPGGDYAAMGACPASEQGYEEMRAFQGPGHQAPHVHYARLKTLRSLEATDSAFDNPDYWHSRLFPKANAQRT
T3 sequence (P22607 23-806): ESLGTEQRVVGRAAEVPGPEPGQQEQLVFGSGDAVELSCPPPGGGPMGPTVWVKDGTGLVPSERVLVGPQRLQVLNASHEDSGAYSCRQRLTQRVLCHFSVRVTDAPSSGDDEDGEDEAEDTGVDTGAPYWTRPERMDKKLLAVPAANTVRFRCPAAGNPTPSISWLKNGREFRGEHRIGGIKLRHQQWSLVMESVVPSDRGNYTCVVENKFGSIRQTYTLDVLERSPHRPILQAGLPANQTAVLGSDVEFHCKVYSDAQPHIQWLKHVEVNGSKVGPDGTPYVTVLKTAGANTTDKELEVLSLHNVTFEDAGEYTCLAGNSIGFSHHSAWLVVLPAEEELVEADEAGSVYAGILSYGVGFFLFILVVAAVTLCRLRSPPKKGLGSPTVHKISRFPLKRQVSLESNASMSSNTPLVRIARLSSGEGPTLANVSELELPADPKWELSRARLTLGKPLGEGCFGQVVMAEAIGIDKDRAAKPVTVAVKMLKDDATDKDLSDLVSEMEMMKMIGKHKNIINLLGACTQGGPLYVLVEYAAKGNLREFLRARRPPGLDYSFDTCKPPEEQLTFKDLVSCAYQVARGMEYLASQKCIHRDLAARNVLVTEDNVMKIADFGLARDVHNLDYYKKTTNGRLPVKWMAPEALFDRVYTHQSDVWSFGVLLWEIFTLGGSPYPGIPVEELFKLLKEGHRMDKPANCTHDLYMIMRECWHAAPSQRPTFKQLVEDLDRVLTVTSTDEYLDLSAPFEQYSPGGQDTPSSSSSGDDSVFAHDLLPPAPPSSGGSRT
T4 sequence (P35916 25-1363): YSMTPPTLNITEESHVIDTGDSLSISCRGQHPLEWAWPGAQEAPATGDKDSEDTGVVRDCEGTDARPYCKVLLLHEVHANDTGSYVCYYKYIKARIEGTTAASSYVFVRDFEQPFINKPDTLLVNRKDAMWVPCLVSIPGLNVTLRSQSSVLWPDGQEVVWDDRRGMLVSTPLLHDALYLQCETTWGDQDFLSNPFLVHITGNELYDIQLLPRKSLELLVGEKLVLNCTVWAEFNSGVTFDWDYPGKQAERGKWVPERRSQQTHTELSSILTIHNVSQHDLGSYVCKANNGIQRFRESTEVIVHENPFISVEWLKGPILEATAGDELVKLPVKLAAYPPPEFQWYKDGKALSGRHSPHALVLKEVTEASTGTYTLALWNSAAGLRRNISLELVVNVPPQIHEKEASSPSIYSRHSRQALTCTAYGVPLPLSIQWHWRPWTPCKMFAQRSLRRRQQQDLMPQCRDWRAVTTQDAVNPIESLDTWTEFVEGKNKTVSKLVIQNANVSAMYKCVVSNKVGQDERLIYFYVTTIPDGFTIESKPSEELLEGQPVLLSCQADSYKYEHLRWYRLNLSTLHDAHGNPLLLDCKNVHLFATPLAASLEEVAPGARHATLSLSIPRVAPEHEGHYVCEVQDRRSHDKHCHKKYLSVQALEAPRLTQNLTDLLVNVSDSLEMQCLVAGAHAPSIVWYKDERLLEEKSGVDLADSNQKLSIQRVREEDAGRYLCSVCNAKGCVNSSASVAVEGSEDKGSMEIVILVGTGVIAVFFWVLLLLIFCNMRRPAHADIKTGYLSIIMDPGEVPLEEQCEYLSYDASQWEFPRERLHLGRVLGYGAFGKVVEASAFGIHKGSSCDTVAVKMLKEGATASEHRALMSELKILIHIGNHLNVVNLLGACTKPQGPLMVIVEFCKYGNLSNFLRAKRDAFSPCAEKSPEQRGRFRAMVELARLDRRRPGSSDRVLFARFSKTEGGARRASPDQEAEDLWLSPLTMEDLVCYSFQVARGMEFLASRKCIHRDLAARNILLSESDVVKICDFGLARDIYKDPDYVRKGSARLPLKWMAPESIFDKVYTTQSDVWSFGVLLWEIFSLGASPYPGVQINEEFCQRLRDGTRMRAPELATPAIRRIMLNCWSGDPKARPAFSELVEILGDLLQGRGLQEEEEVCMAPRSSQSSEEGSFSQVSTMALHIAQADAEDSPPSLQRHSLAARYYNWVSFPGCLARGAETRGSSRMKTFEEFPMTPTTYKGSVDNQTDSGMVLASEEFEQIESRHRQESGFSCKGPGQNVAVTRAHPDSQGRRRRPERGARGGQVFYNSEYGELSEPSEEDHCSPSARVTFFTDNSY

Compound: COc1ccc(/C=C2\N=C(C)N(c3ccc(CC(=O)NCc4ccccc4)cc3)C2=O)cc1 [Compound 4c, (Z)-N-Benzyl-2-(4-(4-(4-methoxybenzylidene)-2-methyl-5-oxo-4,5-dihydro-1H-imidazol-1-yl)phenyl)acetamide]
- Mean Final score (Kinase score) (JAK3 (P52333)): 1.746
- Mean Kinase Statistic (JAK3 (P52333)): -1.15
- Mean Significance Score (JAK3 (P52333)): 1.478
- Mean Specificity Score (JAK3 (P52333)): 0.2986
- Mean Final score (Kinase score) (HER3 (P21860)): 2.412
- Mean Kinase Statistic (HER3 (P21860)): -1.214
- Mean Significance Score (HER3 (P21860)): 2.014
- Mean Specificity Score (HER3 (P21860)): 0.4279
- Mean Final score (Kinase score) (FGFR3 (P22607)): 2.271
- Mean Kinase Statistic (FGFR3 (P22607)): -1.175
- Mean Significance Score (FGFR3 (P22607)): 1.984
- Mean Specificity Score (FGFR3 (P22607)): 0.3218
- Mean Significance Score (FLT4 (P35916)): 2.048
- Mean Specificity Score (FLT4 (P35916)): 1.142
- Mean Final score (Kinase score) (FLT4 (P35916); listed as KIM-161): 3.15 and 3.152
